Assay results reported in patent US20120128728A1 (NOVARTIS PHARMA AG, priority 2005, published 2012).

What was measured:
fungus = experiment: Minimum inhibitory concentration (MIC)
Description: The MIC may be expressed as a particular concentration value or as a range of concentrations. […] As used herein, unless otherwise specified, the MIC value shall be taken to be the particular value when a particular MIC value is determined and shall be taken to be a midrange value when a range of MIC values is determined. MIC determinations may be made according to processes known in the art.

[1] = rat, in vivo
Description: (§2) The animals were dosed using a snout only exposure technique for about 60 min on 5 occasions at weekly intervals. Recovery animals were retained for an approximate one month recovery period.
(§3) The following investigations were performed: clinical observations, body weight, food consumption, ophthalmology, hematology, clinical chemistry, urinalysis, histopathology, and toxicokinetics.

[2] = Toxicity of two dry powders in beagle dogs, once weekly inhalation (Example 17); format: in vivo
Description: The animals were dosed using a close fitting face mask (fitted with a mouth tube) system for 30 min per day according to Table 15, above.

[3] = One month inhalation toxicity study in rats
Description: as §2, §3

[4] = Dry powder toxicology study in rats with daily or weekly dosing (Example 15); format: in vivo; details: dosages up to 30.60 mg/kg/dose amphotericin B alone
Description: The information obtained was used to select dose levels and/or dose regimens for subsequent toxicity studies.
The following investigations were performed: clinical observations, body weight, hematology, clinical chemistry, organ weight, histopathology, toxicokinetics, and bioanalytical chemistry.

[5] = Toxicity of two dry powders in rats with daily or weekly dosing (Example 16); format: in vivo
Description: The following investigations were performed: clinical observations, body weight, respiratory measurements, hematology, clinical chemistry, histopathology, toxicokinetics, and bioanalytical chemistry.

Aspergillus fumigatus = test system: Aspergillus fumigatus
Description: This study had three groups, with 10 rabbits each. Group 1 received the immunosuppressive regimen of intravenous cytarabine and methyl prednisolone and a sham saline inoculation. Group 2 received the immunosuppressive regimen and 5×10^7 conidia of A. fumigatus. […] The immunosuppressive agents were administered by intravenous injection. Antibiotics to prevent bacterial infections were administered by intravenous injection or in the drinking water.
Evaluations performed in this study included mortality and morbidity, daily clinical observations, body weights, clinical pathology (hematology and clinical chemistry), gross necropsy, lung weight, enumeration of visible lung infarctions, fungal colony forming unit (CFU) measurements in BAL, blood, and lung tissue samples, and histopathological evaluation of lung tissue.
There were 3 study groups with 10 rabbits in each group in this experiment. Group 1 received the immunosuppressive regimen of intravenous cytarabine and methyl prednisolone and a sham saline inoculation. Group 2 received the immunosuppressive regimen and 5×10^7 conidia of A. fumigatus.
New Zealand White SPF rabbits that were dual catheterized with vascular access ports (VAPs) and weighing between 2.5 to 4.0 kg at study initiation were used. The rabbits were randomly assigned to treatment groups using a computerized body weight stratification procedure.
In this regard, powder from a blister pack was actuated from the inhaler into a chamber. The small animal ventilator pushed the dispersed powder into an endotracheal tube. The delivery efficiency to the animal was determined by measuring the gravimetric mass of the powder collected on a filter connected to the end of the endotracheal tube. The mass collected on the filter was normalized to the actual blister pack fill weight. The delivery efficiency was used to calculate the estimated dose (mg) for the in vivo experiments.

[6] = test system: Aspergillus fumigatus, NIH strain 4215; experiment: Efficacy of inhaled amphotericin B for prophylaxis in rabbits (Example 13); format: in vivo, New Zealand White SPF rabbits; details: for survival rate: day 14
Description: The test powder was hand-filled into blister packs and contact sealed at 340° F. for 1.0 second, with an approximate fill weight of approximately 1.5 mg per blister pack.
(§1) The test inhalation was administered in a single inhalation exposure.
Aspergillus fumigatus, NIH strain 4215, was obtained from American Type Culture Collection (ATCC). Inoculum of A. fumigatus was prepared on Sabouraud dextrose flasks. Conidia were harvested with a solution of 0.025% Tween 20 in 0.9% sodium chloride, transferred to a conical tube, washed, and counted. The concentration was adjusted with the same solution to achieve 5×10^7 conidia in 300 μL. Animals in challenged groups were inoculated with the same volume. Inoculation was performed on anesthetized rabbits. Rabbits were intubated using an endotracheal tube and the inoculum was then administered intratracheally with a tuberculin syringe attached to a catheter introduced through the endotracheal tube.
The study included 6 groups each comprised of 10 rabbits. These groups are described in Table 6, below. All groups were immunosuppressed and treated with antibiotics to prevent bacterial infections. The immunosuppression and antibiotic cover regimen is detailed in Table 7, below.

in vivo [7] = experiment: in vivo; parameters: species or system dogs; details: both sexes, dog
Text: On Study Days 1 and 14, blood samples for toxicokinetic analysis were obtained from designated animals in the vehicle and high-dose groups before exposure and 2, 4, 8, 12, and 24 hr after exposure, and daily during the 14-day recovery period. Main-study animals were euthanized and necropsied on day 15, recovery animals on day 29, during which the right anterior lobe of each animal was obtained for toxicokinetic analysis.

in vivo [8] = experiment: in vivo; parameters: species or system rabbits; details: rabbit
Description: This Example describes results obtained in the plasma and lung tissue only.
The lot number of the formulation was N020042. The test powder was hand-filled into blister packs and contact sealed at 340° F. for 1.0 second, with an approximate fill weight of approximately 1.5 mg per blister pack.
as §1
The study included two groups each comprised of 48 rabbits. […] Four animals were sacrificed at each of the following time points after dosing: 0.16, 0.3, 1, 1.3, 2, 3, 4, 5, 14, 21, 28, and 45 days. Plasma and lung tissue were collected and analyzed for amphotericin B content using LC/MS-MS. Lower limits of quantitation (LLQ) of the assays were 5 ng/mL in plasma and 20 ng/g in lung tissue.

[9] = Fourteen-day inhalation toxicity/toxicokinetic study in rats; format: in vivo; details: both sexes, rat, lung tissue, inhaled, recovery period, read-out: lung tissue elimination half-life (t1/2) (converted)
Description: Recovery animals were retained for a 14-day postdose recovery period. On study days 1 and 14, blood samples for toxicokinetic analysis were obtained from designated animals in the vehicle only and high-dose (25 mg/kg) groups at predose, 2 hr postdose, and 4 hr postdose. Toxicokinetic blood samples were also obtained during the 14-day recovery period on recovery Days 7 and 14 for males, and on recovery Day 14 only for females due to their lower body weight.
All study animals were subjected to a detailed necropsy on completion of the 14-day treatment period (Day 15) or completion of the 14-day recovery period (Day 29). During necropsy, lung tissue samples for toxicokinetic analysis were obtained from each animal.

[10] = Group 3: 1.5 mg/kg inhaled 1 day before 5×10^7 conidia
[11] = Group 3: 1.5 mg/kg inhaled at day −12
[12] = Group 4: 0.15 mg/kg inhaled at day −1
[13] = Group 5: 0.5 mg/kg inhaled at day −1
[14] = Group 6: 1.5 mg/kg inhaled at Day −1

For C[C@@H]1[C@H](O)[C@@H](C)/C=C/C=C/C=C/C=C/C=C/C=C/C=C/[C@H](O[C@@H]2O[C@H](C)[C@@H](O)[C@H](N)[C@@H]2O)C[C@@H]2O[C@](O)(C[C@@H](O)C[C@@H](O)[C@H](O)CC[C@@H](O)C[C@@H](O)CC(=O)O[C@H]1C)C[C@H](O)[C@H]2C(=O)O [amphotericin B], the “midrange MIC value” (fungus) was “about 2.25 μg/g”, the “effects on body weight, food consumption, ophthalmology, hematology, clinical chemistry, or organ weights” value [1] was “no adverse effects” and the “changes in body weight, hematology, clinical chemistry, food consumption, respiratory measurement” value [2] was “no significant changes”. The clinical signs ([2]; all dose groups including vehicle control) was “salivation”, the “necropsy or histopathology findings attributable to administration” value ([2]; doses up to 8.2 (3.2) mg/kg weekly) was “no necropsy or histopathology findings” and the “mortalities during the study” value ([3]; 198 M and 198 F rats, one death pretrial) was 181. For the same molecule, the “animals with pneumonia/pleuritis, collapse or alveolar inflammation” value ([3]; Groups 3 to 6, Main Study) was 17/110, the “time to maximum plasma concentration after cessation of dosing” value ([3]; rats, toxicokinetics) was at most 4 h and the premature demise [4] was 3 animals. For the same molecule, the clinical signs ([5]; dosages up to 14.80 mg/kg amphotericin B alone) was “clinical signs indicative of respiratory distress”, the necropsy findings ([5]; rats, both powders) was “no notable necropsy findings” and the “Kaplan-Meier survival compared with Group 2 (A. fumigatus only)” value (Aspergillus fumigatus; Group 3) was “significant (p<0.05) increase”. The “animals observed wheezing, gasping, or having rales” value (Aspergillus fumigatus; Group 3) was “five”, the “animals with more than 20 grossly visible lung infarctions” value (Aspergillus fumigatus; Group 3, gross necropsy) was 20% and the “animals with visible lung infarction” value (Aspergillus fumigatus; Group 3, gross necropsy) was 80%. The “animals with mycotic hyphae present in lung” value (Aspergillus fumigatus; Group 3, histopathology) was 50%, the average survival time (Aspergillus fumigatus; [10]) was 13 days and the “median day of death or sacrifice” value (Aspergillus fumigatus; [10]) was 14 days. For the same molecule, the “animals having 1 or more tissues positive for fungus” value (Aspergillus fumigatus; Group 3, BAL, blood, lung tissue culture, 9 animals) was 44%, the “effect against A. fumigatus induced mortality” value (Aspergillus fumigatus; conclusion) was “prophylactic effect” and the “animals surviving beyond nine days” value (Aspergillus fumigatus; immunosuppressed, exposed, treated rabbits (FIG. 20)) was 100%. For the same molecule, the median survival time [6, 11] was 10 days, the survival rate [6, 11] was 0% and the median survival time [6, 12] was 9 days. For the same molecule, the survival rate [6, 12] was 10%, the median survival time [6, 13] was 10.5 days and the survival rate [6, 13] was 10%. The median survival time [6, 14] was 10 days, the survival rate [6, 14] was 10% and the “Logrank pairwise comparison of Groups 3-6 with untreated Group 2” value ([6]; all doses and treatment days) was “significant (P<0.001) protection”. The half-life (in vivo [7]) was 18.8 days, the Tmax (in vivo [8]; 0.25 mg/kg) was 1.33 days and the “group mean lung Cmax” value (in vivo [8]; 0.25 mg/kg) was 8.0 µg/g. For the same molecule, the half-life (in vivo [8]; 0.25 mg/kg) was 12.2 days, the Tmax (in vivo [8]; 1.5 mg/kg) was 1 days and the “group mean lung Cmax” value (in vivo [8]; 1.5 mg/kg) was 46.6 µg/g. For the same molecule, the half-life (in vivo [8]; 1.5 mg/kg) was 10.6 days, the half-life ([9]; 1.1 mg/kg dose level) was 22 days and the half-life ([9]; 12.4 mg/kg dose level) was 34 days.
